In patent US10588280B2, “Aided delivery of plant treatment agents” (Monsanto Technology LLC, priority 2014, dated 2020):

Tests used:
[1] = test system: seedlings; settings: cited from earlier work
[2] = test system: haploid seedlings derived from 91DUQ1 or 83IDI1 (SAM); assay: Example 9: serial centrifugation with colchicine and incubation between spins; type: in vivo, maize; settings: submerged 100 g 3 min, unsubmerged 340 g 3 min, ear with at least four kernels
Source text: F1 hybrid-derived haploid seedlings derived from either female inbred line 91DUQ1 or male inbred line 83IDI1 were germinated in soil in a greenhouse in standard maize growing conditions and grown to the V1 growth stage (1 week after planting). Next, the seedlings were removed from the soil, rinsed with water to remove residual soil form the plants, and then divided into 4 samples comprising several seedlings of each germplasm per sample.
Each sample was then bundled in a PCS comprising an aluminum foil wrap and wooden rods for support, similar to that shown in FIG. 9. Once bundled in a PCS, each sample was contacted by a plant treatment solution comprising either 600 ppm or 800 ppm colchicine such that the SAM of each plant was entirely submerged, and then each sample was centrifuged at 100 g for 3 min with the SAMs submerged in the reserve doubling agent during centrifugation.
Following the submerged centrifugation, plants were removed from the centrifuge container and while some doubling solution from the first centrifugation remained clinging to the plants, the roots and bottom half of each stem were rinsed in water to remove any doubling agent from that end of the plant. Then each bundled sample was incubated in an enclosed, humid environment for one of the four incubation periods listed Table 8.
Following each respective incubation period, the bundled samples were removed from the humid enclosure and subjected to an unsubmerged centrifugation at 340 g for 3 min, wherein the only doubling solution that contacted the plants was that which remained on the plants from the previous submerged centrifugation, i.e. no additional doubling solution was added to the plants after the first centrifugation.
Following the second centrifugation, the plants were removed from the centrifugation container and rinsed with water to remove any remaining colchicine solution, and then recovered and tended in a light, humidity, and temperature-controlled greenhouse for several days before being transplanted to a nursery green house where they were tended under standard maize growing conditions until they grew to maturity and flowered.
Self-pollinations were attempted with each plant that survived the treatment to produce pollen and final doubling efficiencies were determined within each treatment. In this experiment, the doubling efficiency within each treatment sample was calculated by dividing the number of plants of each treatment sample that produced at least one ear comprising at least four kernels by the total number of plants subjected to that set of treatment conditions.

[3] = test system: haploid seedlings derived from 91DUQ1 or 83IDI1; assay: Example 7: serial centrifugation with colchicine at three growth stages (FIG. 4); type: in vivo, maize; settings: 1250 ppm colchicine, submerged 50 g 3 min then unsubmerged 335 g 3 min, ear with at least four kernels
Source text: Three different growth stages and the effects on DH-related success indicators between the three life stages were compared.
F1 hybrid-derived haploid seedlings derived from either female inbred line 91DUQ1 or male inbred line 83IDI1 were germinated in soil in a greenhouse in standard maize growing conditions. To ensure that the older seedlings would fit into the centrifuge sample container, and to ensure that all seedlings received the same chemical treatments, all seedlings were subjected to a 1% paclobutrazol (PBZ) soil drench treatment at 6 days after planting, 10 ml per plant.
This population of seedlings was subdivided into 3 samples, each comprising several dozen seedlings. Half of the seedlings in each sample were derived from 91DUQ1 and the other half derived from 83IDI1. A first sample was removed from the soil at the V1-V2 growth stage (1 week after planting), a second sample removed from the soil at the V3-V4 stage (2 weeks after planting) and a third sample removed from the soil at the V4-V5 growth stage (3 weeks after planting).
Following removal from the soil, seedlings in each sample were rinsed in water to remove residual soil, then wrapped in a PCS along with several wooden rods, similar that that shown in FIG. 9, and subjected to a first submerged centrifugation in 1250 ppm colchicine at 50 g for 3 min.
Following the first, submerged centrifugation, the plant treatment solution was decanted. The seedlings, with some residual agent clinging to their surfaces, were returned to the empty centrifuge container and subjected to a unsubmerged centrifugation at 335 g for 3 min. […]
Self-pollinations were attempted with each plant that survived the treatment to produce pollen and silks and during the ensuing growth the pollination success, fertilization success and final doubling efficiency were determined within each sample. In this experiment, the doubling efficiency within each growth stage sample was calculated by dividing the number of plants that produced at least one ear comprising at least four kernels by the total number of plants treated.

[4] = test system: haploid maize seedlings (shoot meristem); assay: Example 1: single unsubmerged centrifugation after colchicine soak, chromosome doubling success; type: in vivo; settings: 1250 ppm colchicine 10 min soak, unsubmerged spin 335 g 3 min
Source text: Corn seeds of four different maize F1 hybrid-derived haploid induction populations were used in this experiment; two of the populations, Male 1 and Male 2, were derived from two different male inbred lines and the remaining two populations, Female 1 and Female 2, were derived from two different female inbred lines. Seeds of each germplasm were germinated in soil and the subsequent seedlings tended in a greenhouse under standard maize growing conditions until the seedlings reached the V1 to V2 growth stages.
Next, several randomly-selected seedlings of each germplasm were then removed from the soil, washed to remove residual soil and then subjected to a contacting step which included soaking the seedlings for 10 minutes in a liquid doubling agent comprising 1250 ppm colchicine.
After the contacting step, seedlings were bundled in a PCS with wooden rods, similar to that described in FIG. 9. The seedlings and rods were wrapped tightly together with several layers of aluminum foil. Care was taken to wrap the seedlings tightly, but not so tight as to damage the tissues of the seedling. The folds and layers of the wrap were arranged such that any liquid agent still clinging to the surface of the plant would not be trapped inside the wrap during centrifugation.
Once arranged in the centrifuge, seedlings were subjected to an unsubmerged centrifugation at 335 g for 3 min.
After centrifugation, the seedlings were removed from the centrifuge container, rinsed with water to remove any remaining plant treatment agent, and then transplanted into 10-inch pots in a growth room where they were tended under standard maize growing conditions until they grew to maturity and flowered.
Self-pollinations were attempted with each plant that survived the treatment to produce pollen and during the ensuing growth the pollination success, fertilization success and final doubling efficiency were determined within each sample.
Control samples of several randomly-selected seedlings from each germplasm received no exposure to the plant treatment agent, but were otherwise handled identically as their treated counterparts.

COc1cc2c(c(OC)c1OC)-c1ccc(OC)c(=O)cc1[C@@H](NC(C)=O)CC2 [colchicine]
average success rate ([1]; Eder and Chalyk (2002), procedure of Deimling et al.: 0.06% colchicine and DMSO, 12 hours, dark room, range of genotypes): ~50% | doubling rate ([1]; Gayen et al. (1994): coleoptile tips removed, extended (6+ hours) soak, colchicine 0.1% or less): 18.05% | DE ([2]; 600 ppm colchicine, incubation 3 min): 0.41 | DE ([2]; 600 ppm colchicine, incubation 3 hrs): 0.78 | DE ([2]; 800 ppm colchicine, incubation 3 min): 0.66 | DE ([2]; 800 ppm colchicine, incubation 3 hrs): 0.79 | DE ([3]; V1-V2 growth stage): over 70% | doubling efficiency, average ([3]; V4-V5 growth stage): ~30% | doubling efficiency, median ([3]; V4-V5 growth stage): 36.7% | DE (doubling efficiency) ([4]; Female1): 42% | Fertilization Successes ([4]; Female1, 19 plants treated): 8 | Pollination Successes ([4]; Female1, 19 plants treated): 10 | DE (doubling efficiency) ([4]; Female2): 50% | Fertilization Successes ([4]; Female2, 8 plants treated): 4 | Pollination Successes ([4]; Female2, 8 plants treated): 6 | DE (doubling efficiency) ([4]; Male1): 71% | Fertilization Successes ([4]; Male1, 14 plants treated): 10 | Pollination Successes ([4]; Male1, 14 plants treated): 13 | DE (doubling efficiency) ([4]; Male2): 67% | Fertilization Successes ([4]; Male2, 15 plants treated): 10 | Pollination Successes ([4]; Male2, 15 plants treated): 12
